In patent publication US10040813B2, “Compounds as positive allosteric modulators for erythropoietin and erythropoietin receptor to treat erythropoietin deficiency diseases” (ACAHEALTH PHARMA & BIOTECH CO., LTD., priority 2015, dated 2018):
Entries after “also recorded” stand apart in the source; their conditions may differ.

Tested on: cisplatin-induced nephropathy in mice
Test: Cisplatin-induced nephropathy mouse model (anaemia and renal function)
Format: in vivo
Protocol: Forty six-to-seven-week-old C57Bl/6J male mice were i.p. injected with three doses of cisplatin (Sigma-Aldrich), following the scheme of 7, 6, and 6 mg·kg-1 body weight, at 4 to 5 day intervals, and the normal group (n=4) was injected with saline (FIG. 1 scheme). On day 12, the collected serum samples were assayed for the urea nitrogen content (BUN). Mice with BUN values greater than 80 mg·dL-1 were chosen for the experiment. An average seventy percent of injected mice were successful induced renal dysfunction, and the ineffective mice were excluded from the EH202 treating experiments. The mice were subsequently divided randomly into 4 cohorts comprising the control (Ctrl, n=6) and three EH202-treated groups (n=5 to 6 for each group) for an additional 2 weeks. Blood samples from all the mice were collected every 5 days. The RBC numbers were determined from the complete blood cell count using a Sysmex Kx-21 haematology analyser (Sysmex America), and the serum BUN and creatinine levels were determined using a commercial kit (Randox Laboratories Ltd. United Kingdom). All results are expressed as the mean±SEM. The statistical analysis was performed using Student's t-test. One-way ANOVA was used to examine the differences across the animal experimental groups. The posthoc differences between the means of the experimental groups were determined via Tukey's test. P<0.05 was considered significant.

**Q.** Which BUN levels (10, 30 and 90 mg·kg-1 treatment groups, day 29, FIG. 2C) does the source give for `OC[C@H]1OC(Oc2c(/C=C/c3ccc(F)cc3)ccc3ccccc23)[C@H](O)[C@@H](O)[C@@H]1O` (stereo partly drawn) [EH202, (Naphthanol-4′fluoro-stilbenzene)-1-O-β-D-glycoside] here?
**A.** accelerates the recovery from renal dysfunction; also recorded: significantly recovered

**Q.** What about the “recovery of anaemia (HGB level, RBC numbers)” value (30 and 90 mg·kg-1, FIGS. 2D and 2E) of the same molecule?
**A.** increasing recovery of anaemia

**Q.** And the “recovery of renal dysfunction (creatinine level in the peripheral blood)” value (30 and 90 mg·kg-1 for 10 days, day 24, FIG. 2B)?
**A.** accelerates the recovery from renal dysfunction; also recorded: almost complete recovery of renal dysfunction

**Q.** What about the “recovery from anemia, hemoglobin (HGB) level in the peripheral blood” value (day 24, FIG. 2D) of the same molecule?
**A.** accelerates the recovery from anemia

**Q.** And the “recovery from anemia, RBC numbers in the peripheral blood” value (day 29, FIG. 2E)?
**A.** accelerates the recovery from anemia
